Test results as given in PubChem BioAssay AID1259407 (Chemical Carcinogenesis Research Information System (CCRIS), 2018).
Active and inactive are the calls of the source. The rule behind the calls is not given here.

System: CCRIS mutagenicity, Ames/micronucleus/aberration tests
Test: CCRIS mutagenicity studies

O=[N+]([O-])c1ccc2c(c1)Cc1ccccc1-2
mutagenic call (End Point: IN VITRO CHROMOSOMAL ABERRATIONS, Test System: CHINESE HAMSTER LUNG (CHL) CELLS, Metabolic Activation: NONE): inactive; negative
mutagenic call (End Point: IN VITRO CHROMOSOMAL ABERRATIONS, Test System: CHINESE HAMSTER LUNG (CHL) CELLS, Metabolic Activation: RAT, LIVER, S-9, KC-400): active; positive
mutagenic call (End Point: IN VITRO MICRONUCLEUS, Test System: CHL/IU CELLS, Metabolic Activation: NONE): active; positive
mutagenic call (Test System: AMES SALMONELLA TYPHIMURIUM, Strain/Indicator: TA98 (1,8-DNP6), Metabolic Activation: NONE, Method: PREINCUBATION): active; positive
mutagenic call (Test System: AMES SALMONELLA TYPHIMURIUM, Strain/Indicator: TA98(1,8-DNP6), Metabolic Activation: NONE, Method: STANDARD PLATE): active; positive
mutagenic call (Test System: AMES SALMONELLA TYPHIMURIUM, Strain/Indicator: TA98 (NR), Metabolic Activation: NONE, Method: PREINCUBATION): active; positive
mutagenic call (Test System: AMES SALMONELLA TYPHIMURIUM, Strain/Indicator: TA98(NR), Metabolic Activation: NONE, Method: STANDARD PLATE): active; positive
mutagenic call (Test System: AMES SALMONELLA TYPHIMURIUM, Strain/Indicator: TA98 (NR), Metabolic Activation: RAT LIVER S-9 (10%), Method: PREINCUBATION): active; positive
mutagenic call (Test System: AMES SALMONELLA TYPHIMURIUM, Strain/Indicator: TA98 (NR), Metabolic Activation: RAT LIVER S-9, 3-METHYLCHOLANTHRENE (10%), Method: PREINCUBATION): active; positive
mutagenic call (Test System: AMES SALMONELLA TYPHIMURIUM, Strain/Indicator: TA98 (NR), Metabolic Activation: RAT LIVER S-9, BETA-NAPHTHAFLAVONE (10%), Method: PREINCUBATION): active; positive
mutagenic call (Test System: AMES SALMONELLA TYPHIMURIUM, Strain/Indicator: TA98(NR), Metabolic Activation: RAT LIVER S-9, PHENOBARBITAL (10%), Method: PREINCUBATION): active; positive
mutagenic call (Test System: AMES SALMONELLA TYPHIMURIUM, Strain/Indicator: TA98 (NR), Metabolic Activation: RAT LIVER S-9 PCB, 10%, Method: PREINCUBATION): active; positive
mutagenic call (Test System: AMES SALMONELLA TYPHIMURIUM, Strain/Indicator: TA98, Metabolic Activation: NONE, Method: SPIRAL ASSAY): active; positive
mutagenic call (Test System: AMES SALMONELLA TYPHIMURIUM, Strain/Indicator: TA98, Metabolic Activation: RAT, LIVER, S-9, AROCLOR 1254, Method: SPIRAL ASSAY): active; positive
mutagenic call (Test System: AMES SALMONELLA TYPHIMURIUM, Strain/Indicator: TA98, Metabolic Activation: RAT, LIVER, S-9, AROCLOR 1254, Method: STANDARD PLATE): active; positive
mutagenic call (Test System: AMES SALMONELLA TYPHIMURIUM, Strain/Indicator: TA98, Metabolic Activation: RAT, LIVER, S-9, PCB (10%), Method: PREINCUBATION): active; positive
mutagenic call (Test System: AMES SALMONELLA TYPHIMURIUM, Strain/Indicator: TA98, Metabolic Activation: S-9, Method: PREINCUBATION): active; positive
mutagenic call (Test System: AMES SALMONELLA TYPHIMURIUM, Strain/Indicator: TA98, Metabolic Activation: S-9, Method: STANDARD PLATE): active; positive
mutagenic call (Test System: AMES SALMONELLA TYPHIMURIUM, Strain/Indicator: TA100(NR), Metabolic Activation: NONE, Method: STANDARD PLATE): inactive; negative
mutagenic call (Test System: AMES SALMONELLA TYPHIMURIUM, Strain/Indicator: TA100(TN5-1,8-DNP1012), Metabolic Activation: NONE, Method: STANDARD PLATE): inactive; negative
mutagenic call (Test System: AMES SALMONELLA TYPHIMURIUM, Strain/Indicator: TA100, Metabolic Activation: NONE, Method: PREINCUBATION): active; positive
mutagenic call (Test System: AMES SALMONELLA TYPHIMURIUM, Strain/Indicator: TA100, Metabolic Activation: NONE, Method: SPIRAL ASSAY): active; positive
mutagenic call (Test System: AMES SALMONELLA TYPHIMURIUM, Strain/Indicator: TA100, Metabolic Activation: RAT, LIVER, S-9, AROCLOR 1254, Method: SPIRAL ASSAY): active; positive
mutagenic call (Test System: AMES SALMONELLA TYPHIMURIUM, Strain/Indicator: TA100, Metabolic Activation: RAT, LIVER, S-9, AROCLOR 1254, Method: STANDARD PLATE): active; positive
mutagenic call (Test System: AMES SALMONELLA TYPHIMURIUM, Strain/Indicator: TA100, Metabolic Activation: S-9, Method: STANDARD PLATE): active; positive
mutagenic call (Test System: AMES SALMONELLA TYPHIMURIUM, Strain/Indicator: TA102, Metabolic Activation: NONE, Method: PREINCUBATION): active; positive
mutagenic call (Test System: AMES SALMONELLA TYPHIMURIUM, Strain/Indicator: TA1535, Metabolic Activation: NONE, Method: PREINCUBATION): active; positive
mutagenic call (Test System: AMES SALMONELLA TYPHIMURIUM, Strain/Indicator: TA1535, Metabolic Activation: NONE, Method: SPIRAL ASSAY): inactive; negative
mutagenic call (Test System: AMES SALMONELLA TYPHIMURIUM, Strain/Indicator: TA1535, Metabolic Activation: NONE, Method: STANDARD PLATE): inactive; negative
mutagenic call (Test System: AMES SALMONELLA TYPHIMURIUM, Strain/Indicator: TA1535, Metabolic Activation: RAT, LIVER, S-9, AROCLOR 1254, Method: SPIRAL ASSAY): inactive; negative
mutagenic call (Test System: AMES SALMONELLA TYPHIMURIUM, Strain/Indicator: TA1535, Metabolic Activation: RAT, LIVER, S-9, AROCLOR 1254, Method: STANDARD PLATE): inactive; negative
mutagenic call (Test System: AMES SALMONELLA TYPHIMURIUM, Strain/Indicator: TA1537, Metabolic Activation: NONE, Method: SPIRAL ASSAY): active; positive
mutagenic call (Test System: AMES SALMONELLA TYPHIMURIUM, Strain/Indicator: TA1537, Metabolic Activation: NONE, Method: STANDARD PLATE): active; positive
mutagenic call (Test System: AMES SALMONELLA TYPHIMURIUM, Strain/Indicator: TA1537, Metabolic Activation: RAT, LIVER, S-9, AROCLOR 1254, Method: SPIRAL ASSAY): active; positive
mutagenic call (Test System: AMES SALMONELLA TYPHIMURIUM, Strain/Indicator: TA1537, Metabolic Activation: RAT, LIVER, S-9, AROCLOR 1254, Method: STANDARD PLATE): active; positive
mutagenic call (Test System: AMES SALMONELLA TYPHIMURIUM, Strain/Indicator: TA1538, Metabolic Activation: NONE, Method: STANDARD PLATE): active; positive
mutagenic call (Test System: AMES SALMONELLA TYPHIMURIUM, Strain/Indicator: TA1975, Metabolic Activation: NONE, Method: PREINCUBATION): active; positive
mutagenic call (Test System: AMES SALMONELLA TYPHIMURIUM, Strain/Indicator: YG1020, Metabolic Activation: NONE, Method: PREINCUBATION): active; positive
mutagenic call (Test System: AMES SALMONELLA TYPHIMURIUM, Strain/Indicator: YG1024, Metabolic Activation: NONE, Method: PREINCUBATION): active; positive
mutagenic call (Test System: AMES SALMONELLA TYPHIMURIUM, Strain/Indicator: YG1025, Metabolic Activation: NONE, Method: PREINCUBATION): active; positive
mutagenic call (Test System: AMES SALMONELLA TYPHIMURIUM, Strain/Indicator: YG1029, Metabolic Activation: NONE, Method: PREINCUBATION): active; positive
mutagenic call (Test System: AMES SALMONELLA TYPHIMURIUM, Strain/Indicator: YG3001, Metabolic Activation: NONE, Method: PREINCUBATION): active; positive
mutagenic call (Test System: AMES SALMONELLA TYPHIMURIUM, Strain/Indicator: YG3002, Metabolic Activation: NONE, Method: PREINCUBATION): active; positive
mutagenic call (Test System: AMES SALMONELLA TYPHIMURIUM, Strain/Indicator: YG3003, Metabolic Activation: NONE, Method: PREINCUBATION): active; positive
mutagenic call (Test System: AMES SALMONELLA TYPHIMURIUM, Strain/Indicator: YG7112, Metabolic Activation: NONE, Method: PREINCUBATION): active; positive
mutagenic call (Test System: AMES SALMONELLA TYPHIMURIUM, Strain/Indicator: YG7113, Metabolic Activation: NONE, Method: PREINCUBATION): active; positive
mutagenic call (Test System: CHINESE HAMSTER OVARY, Strain/Indicator: CHO-K1-BH4 (HGPRT), Metabolic Activation: RAT, LIVER, S-9, AROCLOR, Method: SUSPENSION/PLATE): active; positive
mutagenic call (Test System: E. COLI, Strain/Indicator: WP2 UVRA, Metabolic Activation: HAMSTER, LIVER, S-9, AROCLOR 1254, Method: STANDARD PLATE): inactive; negative
mutagenic call (Test System: E. COLI, Strain/Indicator: WP2 UVRA, Metabolic Activation: HAMSTER, LIVER, S-9, Method: STANDARD PLATE): inactive; negative
mutagenic call (Test System: E. COLI, Strain/Indicator: WP2 UVRA, Metabolic Activation: MOUSE, LIVER, S-9, AROCLOR 1254, Method: STANDARD PLATE): inactive; negative
mutagenic call (Test System: E. COLI, Strain/Indicator: WP2 UVRA, Metabolic Activation: MOUSE, LIVER, S-9, Method: STANDARD PLATE): inactive; negative
mutagenic call (Test System: E. COLI, Strain/Indicator: WP2 UVRA, Metabolic Activation: NONE, Method: STANDARD PLATE): inactive; negative
mutagenic call (Test System: E. COLI, Strain/Indicator: WP2 UVRA, Metabolic Activation: RAT, LIVER, S-9, AROCLOR 1254, Method: STANDARD PLATE): inactive; negative
mutagenic call (Test System: E. COLI, Strain/Indicator: WP2 UVRA, Metabolic Activation: RAT, LIVER, S-9, Method: STANDARD PLATE): inactive; negative
mutagenic call (Test System: MOUSE LYMPHOMA, Strain/Indicator: L5178Y (TK+/TK-), Metabolic Activation: NONE, Method: SUSPENSION/PLATE): active; positive
mutagenic call (Test System: UDS RAT HEPATOCYTES, Strain/Indicator: THY INCORP, Metabolic Activation: NONE, Method: AUTORADIOGRAPHY (SERUM-FREE MEDIA)): active; positive
